Patent US20060188959A1, “Crystal structure of worm NitFhit reveals that a Nit tetramer binds tow Fhit dimers” (Thomas Jefferson University, priority 2000, published 2006)
Like-named read-outs stand apart in the source and are kept apart here.

Key:
Format in all cases: biochemical, C. elegans
[1] = biological target: T1, Fhit active site of NitFhit (Caenorhabditis elegans, UniProt O76463); assay: Nonlabeled compounds as competitive inhibitors of ApppBODIPY hydrolysis
T1 construct: generated an NdeI site at the initiator codon and an XhoI site 3′ of the stop codon; made in house; host or cells: E. coli strain ER2566
T1 sequence (O76463 1-440): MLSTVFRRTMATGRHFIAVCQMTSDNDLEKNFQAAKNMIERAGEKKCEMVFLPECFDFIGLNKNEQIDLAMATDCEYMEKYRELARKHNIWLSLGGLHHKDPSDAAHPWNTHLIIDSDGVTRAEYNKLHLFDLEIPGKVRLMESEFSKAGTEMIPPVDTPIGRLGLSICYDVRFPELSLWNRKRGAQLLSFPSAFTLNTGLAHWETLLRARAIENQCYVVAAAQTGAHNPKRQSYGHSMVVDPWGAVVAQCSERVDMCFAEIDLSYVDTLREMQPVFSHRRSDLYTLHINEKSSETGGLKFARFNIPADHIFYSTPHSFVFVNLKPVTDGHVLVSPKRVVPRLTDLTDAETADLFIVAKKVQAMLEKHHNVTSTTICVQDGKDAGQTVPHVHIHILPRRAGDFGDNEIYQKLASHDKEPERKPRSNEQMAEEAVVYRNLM

[2] = biological target: T1, Fhit active site of NitFhit; assay: ApppBODIPY substrate decay assay of the Fhit active site of NitFhit; conditions: ApppBODIPY as substrate; % of the activity of human Fhit
[3] = biological target: T1, Fhit active site of NitFhit; assay: GpppBODIPY initial rate assay of the Fhit active site of NitFhit
[4] = titration of nonlabeled compound into 1.5 μM ApppBODIPY assays, five competitor concentrations, read-out: Kl
[5] = initial rates, GpppBODIPY titrated 40 μM to 2.5 μM, 0.5 pmol enzyme

| Compound | Ki [1, 4] [µM] | Ki [1] [µM] | other results |
| --- | --- | --- | --- |
| Nc1ncnc2c1ncn2[C@@H]1O[C@H](COP(=O)(O)OP(=O)(O)OP(=O)(O)OP(=O)(O)OC[C@H]2O[C@@H](n3cnc4c(N)ncnc43)[C@H](O)[C@@H]2O)[C@@H](O)[C@H]1O [AppppA] | 2.7 ± 0.3 | – | – |
| Appp-S-(4-4-fluoro-5,7-dimethyl-4-bora-3a,4a-diaza-s-indacine-3-yl) [ApppBODIPY] | – | – | activity of worm NitFhit relative to human Fhit on the substrate (kcat/Km) [2]: 22% |
| O=P(O)(O)OP(=O)(O)O [pyrophosphate] | – | 78 ± 12 | – |
| Nc1ncnc2c1ncn2[C@@H]1O[C@H](COP(=O)(O)O)[C@@H](O)[C@H]1O [AMP] | – | 153 ± 13 | – |
| Gppp-S-(4-4-fluoro-5,7-dimethyl-4-bora-3a,4a-diaza-s-indacine-3-yl) [GpppBODIPY] | – | – | activity of worm NitFhit relative to human Fhit on the substrate (kcat/Km) ([3]; GpppBODIPY as substrate, % of the activity of human Fhit): 109%; Km [3, 5]: 3.7 µM; kcat [3, 5]: 2.4 s⁻¹ |
| Nc1ncnc2c1ncn2[C@@H]1O[C@H](COP(O)(=S)OP(=O)(O)OP(=O)(O)O)[C@@H](O)[C@H]1O (some centres unmarked) [ATP-αS] | – | 287 ± 73 | – |
| Nc1nc(O)c2ncn([C@@H]3O[C@H](COP(=O)(S)OP(=O)(O)OP(=O)(O)O)[C@@H](O)[C@H]3O)c2n1 (some centres unmarked) [GTP-αS] | – | 481 ± 27 | – |

More lines, main results first:

| Ki [1, 4] [µM] | Compound | Ki [1] [µM] | other results |
| --- | --- | --- | --- |
| 4.2 ± 0.4 | Nc1ncnc2c1ncn2[C@@H]1O[C@H](COP(=O)(O)OP(=O)(O)OP(=O)(O)OC[C@H]2O[C@@H](n3cnc4c(N)ncnc43)[C@H](O)[C@@H]2O)[C@@H](O)[C@H]1O [ApppA] | – | – |
| 4.5 ± 0.7 | Nc1ncnc2c1ncn2[C@@H]1O[C@H](COP(=O)(O)OP(=O)(O)OP(=O)(O)OP(=O)(O)OP(=O)(O)OC[C@H]2O[C@@H](n3cnc4c(N)ncnc43)[C@H](O)[C@@H]2O)[C@@H](O)[C@H]1O [ApppppA] | – | – |
